Source: patent publication US20230233566A1, “INHIBITION OF BMI1 ELIMINATES CANCER STEM CELLS AND ACTIVATES ANTITUMOR IMMUNITY” (The Regents of the University of California, priority 2020, published 2023)

Columns and labels:
SOX2+ CSCs = format: in vivo, mouse; settings: only strongly stained cells counted
cytosolic dsDNA = test: Cytosolic dsDNA staining (PicoGreen/MitoTracker); format: cell-based, human; settings: SCC23 and SCC1 cells
Experimental: Following the treatment, SCC23 and SCC1 cells were incubated with culture media containing PicoGreen (dsDNA stain, 200-fold dilution, Thermo Fisher Scientific, Cat #P11496) and MitoTracker ([…], 100 nM, Thermo Fisher Scientific, Cat #M7512). One hour after incubation, cells were fixed with 4% paraformaldehyde for 10 min. Cells were then washed twice with PBS and stained with DAPI (Sigma-Aldrich, Cat #D9542) and mounted with SlowFade Antifade Reagents (Thermo Fisher Scientific, Cat #536937). Staining was imaged and assessed using a Leica SP5X laser scanning confocal microscope.

pH2A.X [1] = test: pH2A.X immunofluorescent staining in 4NQO-induced HNSCC; set-up: species or system mouse; settings: 4NQO-induced HNSCC in vivo
pH2A.X [2] = test: DNA damage in SCC23 and SCC1 cells (pH2A.X, alkaline comet assay); format: cell-based, human
Experimental: Cells were lysed using the radioimmunoprecipitation assay (RIPA) buffer (Sigma-Aldrich, Cat #R0278) added with a cocktail of protease inhibitors (Thermo Fisher Scientific, Cat ##78430) and phosphatase inhibitors (Sigma-Aldrich, Cat #4906845001). Protein extracts were resolved on a 10% or 15% SDS polyacrylamide gel and then transferred to a polyvinylidene difluoride membrane. Membranes were blocked with 5% milk for 1 h and incubated with primary antibodies overnight at 4° C. Primary antibodies used in this study were: anti-phospho-STING (Ser366) (1:1,000; Cell Signaling Technology, Cat #19781), anti-STING (1:1,000; Cell Signaling Technology, Cat #13647), anti-phospho-TBK1 (Ser172) (1:1,000; Cell Signaling Technology, Cat #5483), anti-TBK1 (1:1,000; Cell Signaling Technology, Cat #3504), anti-phospho-IRF3 (Ser396) (1:1,000; Cell Signaling Technology, Cat #29047), anti-IRF3 (1:1,000; Cell Signaling Technology, Cat #4302), anti-BMI1 (1:1,000; Cell Signaling Technology, Cat #6964), anti-Ubiquityl-Histone H2A (Lys119) (1:1000, Cell Signaling Technology, Cat #8240), anti-phospho Histone H2A.X (Ser139) (1:1000; Cell Signaling Technology, Cat #9718), and anti-GAPDH (1:1000; Cell Signaling Technology, Cat #5174), anti-Histone H3 (1:2,000; Cell Signaling Technology, Cat #4499). The signals were detected using the Clarity Western ECL kit (Bio-Rad, Cat #1705060). To measure the protein levels of CCL5, CXCL9, CXCL10 and CXCL11, cells were treated with PTC209 or shBMI1 knockdown for 48 hr. After treatment, supernatants were collected, and the protein levels of CCL5, CXCL9, CXCL10 and CXCL11 were measured with ELISA (R&D Systems, Cat #DRN00B, DCX900, DIP100, DCX110) according to the manufacturer's instructions.
Single cell gel electrophoresis comet assays were performed using the SCGE assay Kit (Enzo Life Sciences, Cat #ADI-900-166). Following the treatment, cells were mixed with low melting point agarose at a volume ratio of 1:50, and 100 μl of aliquots were loaded onto pre-warmed slides. Slides were incubated in pre-chilled lysis solution for 1 h and then in pre-chilled alkaline solution for 1 h. Electrophoresis was run at 22 V in the TBE buffer for 30 min. Comets were stained with CYGREEN dye for 30 min and imaged. 50 individual cells at least per sample were evaluated in duplicates by the CASP Version 1.2.2 analysis tool.

[3] = tested on: neutrophils and MDSCs (Gr1+CD11b+ cells); test: Immunofluorescent staining of neutrophils and MDSCs in HNSCC; format: in vivo, mouse; settings: 4NQO-induced HNSCC
SCC23 cells = test: qRT-PCR of ATM, DNA-PKcs, MRE11, JUN, FOSL1, MMP3, MMP9 in SCC23 cells; format: cell-based, human
Experimental: (§1) For qRT-PCR, total RNA was prepared using TRIzol reagent (Thermo Fisher Scientific Cat #15596026), and 1 μg of RNA was reversely transcribed with random primer (Thermo Fisher Scientific Cat #48190011), dNTP mix (Thermo Fisher Scientific, Cat #18427013), and M-MuLV Reverse Transcriptase (New England Biolabs, Cat #M0253L). The levels of mRNA were […] measured using a SYBRGreen supermix (Bio-Rad, Cat #1708880). GAPDH was used as an internal control.

BMI1+ CSCs = test: In vivo labeling and lineage tracing of Tomato+ BMI1+ CSCs; set-up: species or system mouse; settings: tamoxifen 1 day prior to sacrifice, treated 4 weeks
Experimental: (§2) The immunocomplexes were detected and visualized using related secondary antibodies conjugated with Cy2 or Cy3 (Jackson ImmunoResearch Laboratories). […] At least three sections from each HNSCC lesions were immunostained and analyzed. Tumor cells (>150) and CD8+, Ac-casp3+ and Tomato^+ cells of these tumor cell areas were counted manually in each section. The percentage of CD8+, Ac-casp3^+ and Tomato^+ cells were calculated by dividing those cells with tumor cells and averaged from the sections.

[4] = tested on: CCL5, CXCL9, CXCL10, and CXCL11; test: qRT-PCR and ELISA of CCL5, CXCL9, CXCL10, CXCL11 in SCC cells; format: cell-based, human; settings: SCC1 and SCC23 cells
Experimental: as §1
Cells were lysed using the radioimmunoprecipitation assay (RIPA) buffer (Sigma-Aldrich, Cat #R0278) added with a cocktail of protease inhibitors (Thermo Fisher Scientific, Cat ##78430) and phosphatase inhibitors (Sigma-Aldrich, Cat #4906845001). Protein extracts were resolved on a 10% or 15% SDS polyacrylamide gel and then transferred to a polyvinylidene difluoride membrane. Membranes were blocked with 5% milk for 1 h and incubated with primary antibodies overnight at 4° C. […] The signals were detected using the Clarity Western ECL kit (Bio-Rad, Cat #1705060). […] After treatment, supernatants were collected, and the protein levels of CCL5, CXCL9, CXCL10 and CXCL11 were measured with ELISA (R&D Systems, Cat #DRN00B, DCX900, DIP100, DCX110) according to the manufacturer's instructions.

IFNβ = test: qRT-PCR of IFNβ mRNA; format: cell-based, human; settings: SCC23 cells
Experimental: as §1

CD8+ T cells = test: Immunostaining of CD8+ T cells in HNSCC; format: in vivo, mouse; settings: 4NQO-induced HNSCC, treated 4 weeks
Experimental: as §2

HNSCC tumor cells = test: Anti-active caspase-3 (Ac-casp3) immunostaining of apoptosis in HNSCC; format: in vivo, mouse; settings: 4NQO-induced HNSCC, treated 4 weeks
Experimental: as §2

[5] = tested on: promoters of CCL5, CXCL9, CXCL10 and CXCL11; test: ChIP-qPCR on chemokine promoters; format: cell-based, human; settings: SCC23 cells
Experimental: ChIP-qPCR assays were performed as previously described (Ding et al, 2013). Briefly, SCC cells were sequentially treated with dimethyl 3,3′-dithiobispropionimidate-HCl (DTBP; Cat #20665, Thermo Fisher Scientific) solution and formaldehyde, and harvested with a cell scraper. The cell pellet was lysed with ChIP lysis buffer and sonicated to generate 200-500 bp DNA fragments with a sonicator. The fragmented chromatins were immunoprecipitated with anti-BMI1 (Cell Signaling Technology, Cat #6964), anti-Ubiquityl-Histone H2A (Lys119) (Cell Signaling Technology, Cat #8240) overnight at 4° C. The precipitated DNA-chromatin products were purified with ChIP DNA clean & concentrator kit (Cat #D5205, Zymo Research) and the DNA levels were quantified by qPCR. Data is presented as the percentage of input DNA.

COc1cc(Br)c(Nc2nc(-c3c(C)nc4ncccn34)cs2)c(Br)c1 [PTC209, N-(2,6-dibromo-4-methoxyphenyl)-4-(2-methylimidazo[1,2-a]pyrimidin-3-yl)thiazol-2-amine]
number of SOX2+ cells (SOX2+ CSCs): significantly reduced | accumulation of cytosolic dsDNA (cytosolic dsDNA): induced the accumulation of cytosolic dsDNA | pH2A.X in HNSCC (pH2A.X [1]): significantly increased | Olive tail moment (pH2A.X [2]; alkaline comet assay): significantly increased the Olive tail moment in SCC23 and SCC1 cells | pH2A.X (pH2A.X [2]; immunostaining and Western blot): increased pH2A.X in SCC23 and SCC1 cells | percentage of neutrophils and MDSCs (Gr1+CD11b+ cells) in HNSCC [3]: does not significantly change the percentage of neutrophils and MDSCs (Gr1^+CD11b^+ cells) in HNSCC | ATM, DNA-PKcs, and MRE11 mRNA expression (SCC23 cells): does not affect the expression of ATM, DNA-PKcs, and MRE11 | JUN, FOSL1, MMP3, and MMP9 mRNA expression (SCC23 cells): does not change the expression of JUN, FOSL1, MMP3, and MMP9 significantly | BMI1+ CSCs in HNSCC (in vivo labeling) (BMI1+ CSCs): able to reduce BMI1+ CSCs | expression of CCL5, CXCL9, CXCL10, and CXCL11 [4]: significantly increased the expression of CCL5, CXCL9, CXCL10, and CXCL11 in both SCC1 and SCC23 cells | IFNβ mRNA expression (IFNβ): induction of IFNβ mRNA expression in SCC23 cells | CD8+ T cell infiltration in HNSCC (CD8+ T cells): could induce CD8+ T cell infiltration in tumors | apoptosis in Tomato+ BMI1+ CSCs (HNSCC tumor cells): able to induce apoptosis in Tomato^+ CSCs | levels of BMI1 on the promoters of CCL5, CXCL9, CXCL10 and CXCL11 [5]: significantly reduced the levels of BMI1 on these promoters in SCC23 cells | levels of H2AUb marks on the promoters of CCL5, CXCL9, CXCL10 and CXCL11 [5]: significantly decreased in SCC23 cells
